Among the data in article doi:10.1101/2025.09.09.675175v1 (biorxiv, 2025) are Kd and Ki values, retold here.

SMILES strings stand for the structures.

Assay [1] deals with T1, GdpP-C (GdpP313-656) (Staphylococcus aureus, UniProt Q2G2T6).
T1 sequence (Q2G2T6 313-655): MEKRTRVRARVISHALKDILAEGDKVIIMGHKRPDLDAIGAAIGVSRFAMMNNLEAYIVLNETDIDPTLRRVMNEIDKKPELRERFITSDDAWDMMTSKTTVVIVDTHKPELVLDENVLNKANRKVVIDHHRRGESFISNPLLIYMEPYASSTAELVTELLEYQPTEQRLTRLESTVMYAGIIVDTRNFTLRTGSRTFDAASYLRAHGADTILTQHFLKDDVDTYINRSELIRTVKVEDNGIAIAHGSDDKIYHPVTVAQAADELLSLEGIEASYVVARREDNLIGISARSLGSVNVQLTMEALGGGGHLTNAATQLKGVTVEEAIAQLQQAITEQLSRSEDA
The assay is described as follows: isothermal titration calorimetry. Type of assay: binding. In general terms: ITC needs no label: the signal is the heat of the interaction.

In assay [2] the target is T1, GdpP-C (GdpP313-656). The assay is described as follows: phosphomolybdate blue Pi release, Michaelis-Menten fit. Format: biochemical.

For `CC(=O)CCCCn1c(=O)c2c(ncn2C)n(C)c1=O` [pentoxifylline], the dissociation constant Kd at GdpP-C (GdpP313-656) [1] was determined as 33.2 µM. The inhibition constant Ki at GdpP-C (GdpP313-656) [2] was 68.3 µM.

In general, Kd refers to the equilibrium constant for the complex coming apart. Low values mean higher affinity, high ones lower affinity. As a reminder, the Ki is the equilibrium dissociation constant of an inhibitor or competing ligand from its target. A higher Ki goes with lower affinity.
